For data set [1], the target named is T1, human TLR7 (Homo sapiens, UniProt Q9NYK1).
T1 sequence (Q9NYK1 27-1049): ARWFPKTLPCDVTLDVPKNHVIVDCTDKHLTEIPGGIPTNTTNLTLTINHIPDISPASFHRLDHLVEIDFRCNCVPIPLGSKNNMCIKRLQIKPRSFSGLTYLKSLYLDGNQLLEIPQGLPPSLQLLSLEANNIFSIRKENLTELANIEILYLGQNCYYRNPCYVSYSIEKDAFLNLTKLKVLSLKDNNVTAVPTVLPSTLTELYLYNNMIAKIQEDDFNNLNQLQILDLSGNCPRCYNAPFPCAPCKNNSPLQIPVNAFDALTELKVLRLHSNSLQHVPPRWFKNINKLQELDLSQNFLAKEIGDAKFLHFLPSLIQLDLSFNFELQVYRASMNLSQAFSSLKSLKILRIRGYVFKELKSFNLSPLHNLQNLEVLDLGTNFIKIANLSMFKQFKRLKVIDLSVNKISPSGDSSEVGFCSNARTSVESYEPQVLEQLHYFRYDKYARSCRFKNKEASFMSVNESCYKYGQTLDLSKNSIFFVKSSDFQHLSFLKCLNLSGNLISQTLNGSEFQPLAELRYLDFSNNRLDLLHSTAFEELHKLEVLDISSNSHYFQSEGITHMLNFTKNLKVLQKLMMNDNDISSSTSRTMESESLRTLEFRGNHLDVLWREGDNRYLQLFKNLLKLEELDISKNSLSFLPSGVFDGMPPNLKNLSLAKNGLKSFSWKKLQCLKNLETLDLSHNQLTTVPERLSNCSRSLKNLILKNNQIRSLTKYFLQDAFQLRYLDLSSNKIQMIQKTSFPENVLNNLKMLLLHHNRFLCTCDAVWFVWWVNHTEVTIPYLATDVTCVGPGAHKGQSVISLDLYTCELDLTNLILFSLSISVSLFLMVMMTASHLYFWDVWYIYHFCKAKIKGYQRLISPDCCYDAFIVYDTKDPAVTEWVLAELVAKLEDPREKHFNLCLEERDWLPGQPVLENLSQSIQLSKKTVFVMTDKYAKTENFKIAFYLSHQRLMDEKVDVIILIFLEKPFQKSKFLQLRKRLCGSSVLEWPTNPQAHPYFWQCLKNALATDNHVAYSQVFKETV
The data set is described as follows: HEK293-Blue-hTLR-7 cells assay (SEAP reporter). In kind it is cell-based. The conditions noted are these: for Ratio (EC50(prodrug)/EC50(active form)): EC50 of prodrug over EC50 of corresponding active form; for EC50: HEK293-Blue-hTLR-7 cells, SEAP reporter, 20 hrs, prodrug, read-out: HEK293-hTLR-7 EC50 (Prodrug). An excerpt: HEK293-Blue-hTLR-7 Cells Assay:
A stable HEK293-Blue-hTLR-7 cell line was purchased from InvivoGen (Cat.#: hkb-htlr7, San Diego, Calif., USA). These cells were designed for studying the stimulation of human TLR7 by monitoring the activation of NF-κB. A SEAP (secreted embryonic alkaline phosphatase) reporter gene was placed under the control of the IFN-β minimal promoter fused to five NF-κB and AP-1-binding sites. The SEAP was induced by activating NF-κB and AP-1 via stimulating HEK-Blue hTLR7 cells with TLR7 ligands. Therefore the reporter expression was regulated by the NF-κB promoter upon stimulation of human TLR7 for 20 hrs. The cell culture supernatant SEAP reporter activity was determined using QUANTI-Blue™ kit (Cat.#: rep-qbl, Invivogen, San Diego, Calif., USA) at a wavelength of 640 nm, a detection medium that turns purple or blue in the presence of alkaline phosphatase.
HEK293-Blue-hTLR7 cells were incubated at a density of 250,000˜450,000 cells/mL in a volume of 180 μL in a 96-well plate in Dulbecco's Modified Eagle's medium (DMEM) containing 4.5 g/L glucose, 50 U/mL penicillin, […], […], 2 mM L-glutamine, 10% (V/V) heat-inactivated fetal bovine serum for 24 hrs. Then the HEK293-Blue-hTLR-7 cells were incubated with addition of 20 μL test compound in a serial dilution in the presence of final DMSO at 1% and perform incubation under 37° C. in a CO2 incubator for 20 hrs. Then 20 μL of the supernatant from each well was incubated with 180 μL Quanti-blue substrate solution at 37° C. for 2 hrs and the absorbance was read at 620˜655 nm using a spectrophotometer. The signalling pathway that TLR7 activation leads to downstream NF-κB activation has been widely accepted, and therefore similar reporter assay was also widely used for evaluating TLR7 agonist (Tsuneyasu Kaisho and Takashi Tanaka, Trends in Immunology, Volume 29, Issue 7, July 2008, […]; Hiroaki Hemmi et al, Nature Immunology 3, 196-200 (2002)).
The Compounds and Examples of the present invention were tested in HEK293-hTLR-7 assay for their TLR7 agonism activity as described herein and results are listed in Table 1. […] The calculated ratio of EC50(prodrug)/EC50(active form) were within the range from 32 to about 7600.

Data set [2] is described as follows: LYSA solubility study. It counts as physicochemical. As to conditions: for solubility thermodynamic: phosphate buffer, pH 6.5, aqueous buffer, thermodynamic from solid, 0.05M phosphate buffer pH 6.5, read-out: LYSA of Prodrugs; for LYSA of Prodrugs: aqueous solubility, 0.05M phosphate buffer pH 6.5. The procedure:
LYSA study is used to determine the aqueous solubility of tested compounds. Samples were prepared in duplicate from 10 mM DMSO stock solution. After evaporation of DMSO with a centrifugal vacuum evaporator, the compounds were dissolved in 0.05M phosphate buffer (pH 6.5), stirred for one hour and shaken for two hours. After one night, the solutions were filtered using a microtiter filter plate. Then the filtrate and its 1/10 dilution were analyzed by HPLC-UV. […] The results were in μg/mL. In case the percentage of sample measured in solution after evaporation divided by the calculated maximum of sample amount was bigger than 80%, the solubility was reported as bigger than this value.

Data set [3] is described as follows: Single dose PK study in male Wister-Han rats. As to conditions: male, Wister-Han, rat, plasma, po, 5 mg/kg, 5 mg/kg oral dosing of active form. It counts as in vivo. The procedure:
The single dose PK in Male Wister-Han Rats was performed to assess pharmacokinetic properties of tested compounds. Two groups of animals were dosed via Gavage (POE) of the respective compound. […] Blood samples were placed into tubes containing EDTA-K2 anticoagulant and centrifuged at 5000 rpm for 6 min at 4° C. to separate plasma from the samples. After centrifugation, the resulting plasma was transferred to clean tubes for bioanalysis of both prodrug and active form on LC/MS/MS. In the groups that prodrug were dosed, the concentration of prodrugs in the plasma samples was under the detection limit. The “tested compound” in Table 8 was used as the internal standard for testing the metabolite (active form) of “dose compound” in vivo. The pharmacokinetic parameters were calculated using non-compartmental module of WinNonlin® Professional 6.2. The peak concentration (Cmax) was recorded directly from experimental observations. The area under the plasma concentration-time curve (AUC0-t) was calculated using the linear trapezoidal rule up to the last detectable concentration. Cmax and AUC0-last are two critical PK parameters related to the in vivo efficacy of the tested compound. Compounds with higher Cmax and AUC0-last will lead to the better in vivo efficacy.

≈ marks a conversion by molar mass, not a printed value. Bounds are passed on as bounds.

Twelve molecules from patent US10233184B2, “7-substituted sulfonimidoylpurinone compounds and derivatives for the treatment and prophylaxis of virus infection” (Hoffmann-La Roche Inc., priority 2016, dated 2019) can be followed below.

For orientation: EC50 means the concentration at which the effect is half-maximal. In general, AUC(0-t) refers to exposure summed from dosing to a finite time, without extrapolation to infinity. What is called Cmax is the peak of the concentration-time curve.

`CCCS(=N)(=O)c1nc(N)c2c(n1)n(Cc1ccccc1)c(=O)n2C(=O)N(C)CCN(C)C(=O)OC` (centres unmarked) [Example 26, Methyl N-[2-[[6-amino-9-benzyl-8-oxo-2-(propylsulfonimidoyl)purine-7-carbonyl]-methyl-amino]ethyl]-N-methyl-carbamate]: in data set [1], the “Ratio (EC50(prodrug)/EC50(active form))” value was 206.2 and the EC50 worked out at 13.4 µM. Also, in data set [2], the solubility thermodynamic was above 0.69 mg/mL.

For the molecule `CCCN(C)C(=O)n1c(=O)n(Cc2ccc(C)cc2)c2nc([S@@](=N)(=O)CCC)nc(N)c21` [Example 36-A, 6-Amino-N-methyl-8-oxo-N-propyl-2[S(S)-propylsulfonimidoyl]-9-(p-tolylmethyl)purine-7-carboxamide], in data set [1], the “Ratio (EC50(prodrug)/EC50(active form))” value was found to be 1673.7 and the EC50 is 31.8 µM. Besides, the solubility thermodynamic in data set [2] is 0.168 mg/mL (≈ 366 µM).

In the case of `CCCS(=N)(=O)c1nc(N)c2c(n1)n(Cc1ccccc1)c(=O)n2C(=O)N(CCOC)CCOC` (centres unmarked) [Example 8, 6-Amino-9-benzyl-N,N-bis(2-methoxyethyl)-8-oxo-2-(propylsulfonimidoyl)purine-7-carboxamide], in data set [1], the “Ratio (EC50(prodrug)/EC50(active form))” value is 32.3 and the EC50 is 2.1 µM. In data set [2], the solubility thermodynamic came out at 0.62 mg/mL (≈ 1230 µM).

On to `CCCS(=N)(=O)c1nc(N)c2c(n1)n(Cc1ccccc1)c(=O)n2C(=O)N(C)CC(=O)OCC` (centres unmarked) [Example 14, Ethyl 2-[[6-amino-9-benzyl-8-oxo-2-(propylsulfonimidoyl)purine-7-carbonyl]-methyl-amino]acetate], for which, in data set [1], the “Ratio (EC50(prodrug)/EC50(active form))” value was 36.9 and the concentration for a half-maximal effect (EC50) came to 2.4 µM. Besides, in data set [2], the solubility thermodynamic was determined as 0.225 mg/mL (≈ 460 µM).

Regarding `CCCS(=N)(=O)c1nc(N)c2c(n1)n(Cc1ccccc1)c(=O)n2C(=O)N(C)CCC(=O)OCC` (centres unmarked) [Example 15, Ethyl 3-[[6-amino-9-benzyl-8-oxo-2-(propylsulfonimidoyl)purine-7-carbonyl]-methyl-amino]propanoate], in data set [1], the “Ratio (EC50(prodrug)/EC50(active form))” value was found to be 7600 and the EC50 stood at 494 µM. The solubility thermodynamic in data set [2] amounted to 0.405 mg/mL (≈ 804 µM).

Take `CCCN(C)C(=O)n1c(=O)n(Cc2ccc(F)cc2)c2nc(S(=N)(=O)CC)nc(N)c21` (centres unmarked) [Example 45, 6-amino-2-(ethylsulfonimidoyl)-9-[(4-fluorophenyl)methyl]-N-methyl-8-oxo-N-propyl-purine-7-carboxamide]: the solubility thermodynamic in data set [2] is 0.172 mg/mL (≈ 383 µM).

As for `CCCN(CCOC)C(=O)n1c(=O)n(Cc2ccccc2)c2nc(S(=N)(=O)CCC)nc(N)c21` (centres unmarked) [Example 7, 6-Amino-9-benzyl-N-(2-methoxyethyl)-8-oxo-N-propyl-2-(propylsulfonimidoyl)purine-7-carboxamide], in data set [1], the “Ratio (EC50(prodrug)/EC50(active form))” value stood at 306.2 and the EC50 was 19.9 µM. Besides, the solubility thermodynamic in data set [2] is 0.615 mg/mL (≈ 1260 µM).

Turning to `CCN(C)C(=O)n1c(=O)n(Cc2ccc(Cl)cc2)c2nc([S@@](=N)(=O)CC)nc(N)c21` (stereo in doubt) [Example 42-B, 6-Amino-9-[(4-chlorophenyl)methyl]-N-ethyl-2-[S(R)-ethylsulfonimidoyl]-N-methyl-8-oxo-purine-7-carboxamide], in data set [1], the “Ratio (EC50(prodrug)/EC50(active form))” value is reported as 578.8 and the EC50 was found to be 49.2 µM. Besides, the “LYSA of Prodrugs” value in data set [2] was 335 µg/mL.

In the case of `CCS(=O)(=O)c1nc(N)c2[nH]c(=O)n(Cc3ccc(C)cc3)c2n1` [Example S-3, reference compound], in data set [3], the AUC(0-t) came to 95 nM·h, the Cmax worked out at 0.0115 µM, the concentration at 0.25 h was determined as 8.89 nM and the concentration at 0.5 h is 9.99 nM. In data set [3], this molecule returned a concentration at 1 h of 10.2 nM, a concentration at 2 h of 8.4 nM, a concentration at 4 h of 11.5 nM and a concentration at 8 h of 8.17 nM.

`CCCN(C)C(=O)n1c(=O)n(Cc2ccc(C)cc2)c2nc([S@@](=N)(=O)CCC)nc(N)c21` (stereo in doubt) [Example 36-B, 6-amino-N-methyl-8-oxo-N-propyl-2[S(R)-propylsulfonimidoyl]-9-(p-tolylmethyl)purine-7-carboxamide]: in data set [2], the “LYSA of Prodrugs” value is 209 µg/mL.

In data set [3], `CCS(=O)(=O)c1nc(N)c2[nH]c(=O)n(Cc3ccc(Cl)cc3)c2n1` [Example S-2, reference compound] yielded an AUC(0-t) of 748 nM·h, a Cmax of 0.0527 µM, a concentration at 0.25 h of 9.49 nM and a concentration at 0.5 h of 16.7 nM. In data set [3], this molecule had a concentration at 1 h of 19.3 nM, a concentration at 2 h of 24.9 nM, a concentration at 4 h of 47.5 nM and a concentration at 8 h of 52.7 nM. The molecule further yielded a concentration at 24 h in data set [3] (24 h) of 4.9 nM.

As to `CCCS(=N)(=O)c1nc(N)c2c(n1)n(Cc1ccccc1)c(=O)n2C(=O)N(C)[C@@H](C)C(=O)OCC` (stereo partly drawn) [Example 17, Ethyl(2S)-2-[[6-amino-9-benzyl-8-oxo-2-(propylsulfonimidoyl)purine-7-carbonyl]-methyl-amino]propanoate], the solubility thermodynamic in data set [2] is 0.19 mg/mL (≈ 377 µM).
